Values quoted from earlier work, collected in patent publication US20220287355A1, “ORAL PRODUCTS WITH SELF-EMULSIFYING SYSTEM” (NICOVENTURES TRADING LIMITED, priority 2021, published 2022).

What was measured:
[1] = not given; remark: listed apart in the source

## C=C(C)[C@@H]1CCC(C)=C[C@H]1c1c(O)cc(CCCCC)cc1O [CBD, cannabidiol]
other
  solubility in an aqueous environment (e.g., saliva): insoluble
[1]
  logP value: about 6.5
